Assay results published in patent US20060100431A1, “Biologically active compounds” (Amura Therapeutics Limited, priority 2002, published 2006).
Read-outs that look alike come from different tables or passages of the source.

Legend:
Type in all cases: biochemical
[1] = biological target: Wild-type cruzipain (Trypanosoma cruzi, UniProt P25779); assay: Trypanosoma cruzi cruzipain peptidase activity assay (Ki); conditions: read-out: Ki, inhibitors of cruzain and cruzipains
In short: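 Native cruzipain from T. cruzi Dm28 epimastigotes, 2.5 nM, in 100 mM sodium phosphate pH 6.75 with 1 mM EDTA and 10 mM L-cysteine, 25 °C, DMSO <1%. Rates taken from continuous fluorogenic substrate read; Ki by regression assuming reversible pure-competitive inhibition.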

[2] = biological target: T1, CPB2.8ΔCTE (Leishmania mexicana, UniProt P36400); assay: Leishmania mexicana cysteine protease B (CPB) peptidase activity assay (Ki); conditions: Ki, inhibitors of Leismania mexicana CPB protease
T1 construct: Wild-type recombinant CPB without the C-terminal extention (i.e. CPB2.8ΔCTE); Dr. Jeremy Mottram (Wellcome Centre for Molecular Parasitology, University of Glasgow)
T1 sequence (P36400 126-343, stated change not applied): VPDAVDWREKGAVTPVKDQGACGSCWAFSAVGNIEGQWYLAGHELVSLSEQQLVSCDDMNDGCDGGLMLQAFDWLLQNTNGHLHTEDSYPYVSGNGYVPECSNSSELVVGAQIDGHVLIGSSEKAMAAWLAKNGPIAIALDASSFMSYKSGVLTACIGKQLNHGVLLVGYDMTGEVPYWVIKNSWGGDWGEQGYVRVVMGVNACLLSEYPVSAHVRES
In short: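 Recombinant CPB2.8ΔCTE (0.25 nM) was assayed in 100 mM sodium acetate pH 5.5 with 1 mM EDTA, 200 mM NaCl and 10 mM DTT at 25 °C, DMSO <1%, enzyme added to start. Rates were taken from continuous fluorescence slopes; apparent Ki was fitted assuming reversible, pure-competitive inhibition.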

[3] = biological target: T2, human cathepsin B (Homo sapiens, UniProt P07858); assay: Cathepsin B peptidase activity assay (Ki)
T2 construct: purchased CN Biosciences
Experimental: Unless otherwise stated, all general chemicals and biochemicals were purchased from either the Sigma Chemical Company, Poole, Dorset, U.K or from Fisher Scientific UK, Loughborough, Leicestershire, U.K. Absorbance assays were carried out in flat-bottomed 96-well plates (Spectra; Greiner Bio-One Ltd., Stonehouse, Gloucestershire, U.K.) using a SpectraMax PLUS384 plate reader (Molecular Devices, Crawley, U.K.). […] Fluorescence assays were monitored using a SpectraMax Gemini fluorescence plate reader (Molecular Devices). For substrates employing either a 7-amino-4-methylcoumarin (AMC) or a 7-amino-4-trifluoromethylcoumarin (AFC) fluorophore, assays were monitored at an excitation wavelength of 365 nm and an emission wavelength of 450 nm and the fluorescence plate reader calibrated with AMC. For substrates employing a 3-amino-benzoyl (Abz) fluorophore, assays were monitored at an excitation wavelength of 310 nm and an emission wavelength of 445 nm; the fluorescence plate reader calibrated with 3-amino-benzamide (Fluka). Unless otherwise indicated, all the peptidase substrates were purchased from Bachem UK, St Helens, Merseyside, UK. […] Hydroxyethylpiperazine ethanesulfonate (HEPES), tris-hydroxylmethyl aminomethane (tris) base, bis-tris-propane and all the biological detergents (e.g. CHAPS, zwittergents, etc.) were purchased from CN Biosciences UK, Beeston, Nottinghamshire, U.K. Glycerol was purchased from Amersham Pharmacia Biotech, Little Chalfont, Buckinghamshire, U.K. Stock solutions of substrate or inhibitor were made up to 10 mM in 100% dimethylsulfoxide (DMSO) (Rathburns, Glasgow, U.K.) and diluted as appropriately required. In all cases the DMSO concentration in the assays was maintained at less than 1% (vol./vol.).
Enzyme was added as required to initiate the reaction and the activity, as judged by the change in fluorescence upon conversion of substrate to product, was monitored over time. All assays were carried out at 25±1° C.
Bovine cathepsin S, human cathepsin L, human cathepsin H and human cathepsin B were obtained from CN Biosciences. Recombinant human cathepsin S, human cathepsin K and human cathepsin X were obtained from Dr. Boris Turk (Josef Stefan Institute, Ljubljana, Slovenia). Unless otherwise stated, all peptidase activity assays were carried out in 10 mM bis-tris-propane (BTP), pH 6.5 containing 1 mM EDTA, 5 mM 2-mercaptoethanol and 1 mM CaCl2.
The apparent inhibition constant (Ki) for each compound was determined on the basis that inhibition was reversible and occurred by a pure-competitive mechanism. […] [formula]
[formula] Ki^app=Ki(1+[So]/KM^app) (4)
Curves were fitted by non-linear regression analysis (Prism) using a fixed value for the enzyme concentration.

[4] = read-out: Ki, inhibitors of cathepsin B

Wild-type cruzipain, sequence (P25779 whole entry): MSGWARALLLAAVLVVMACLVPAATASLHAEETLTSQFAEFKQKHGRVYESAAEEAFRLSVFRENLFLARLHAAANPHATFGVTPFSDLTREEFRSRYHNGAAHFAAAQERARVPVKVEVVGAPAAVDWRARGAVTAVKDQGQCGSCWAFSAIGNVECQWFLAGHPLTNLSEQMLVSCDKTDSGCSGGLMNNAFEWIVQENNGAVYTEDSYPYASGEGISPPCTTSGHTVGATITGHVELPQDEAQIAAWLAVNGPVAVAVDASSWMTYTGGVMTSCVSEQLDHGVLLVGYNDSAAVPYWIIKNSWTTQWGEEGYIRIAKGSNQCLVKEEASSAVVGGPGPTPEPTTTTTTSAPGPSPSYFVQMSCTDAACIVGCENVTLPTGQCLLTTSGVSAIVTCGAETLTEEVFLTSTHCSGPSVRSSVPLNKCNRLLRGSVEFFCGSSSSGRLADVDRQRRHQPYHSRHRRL

Compound | Ki [1] [µM] | Ki [2] [µM] | Ki [3, 4] [µM] | Ki [3] [µM]
CC(C)C[C@H](NC(=O)c1ccc(C(C)(C)C)cc1)C(=O)N1CC[C@@H]2[C@H]1C(=O)CN2C(=O)c1ccc2ccccc2c1 [Example 34, (3aR,6aS)-4-tert-Butyl-N-{(1S)-3-methyl-1-[4-(naphthalene-2-carbonyl)-6-oxo-hexahydro-pyrrolo[3,2-b]pyrrole-1-carbonyl]-butyl}-benzamide] | < 5 | < 5 | < 5 | –
CC(C)C[C@H](NC(=O)c1ccc(N(C)C)cc1)C(=O)N1CC[C@@H]2[C@H]1C(=O)CN2C(=O)c1ccc2c(c1)OCO2 [Example 77, (3aR,6aS)-N-{(1S)-1-[4-(Benzo[1,3]dioxole-5-carbonyl)-6-oxo-hexahydro-pyrrolo[3,2-b]pyrrole-1-carbonyl]-3-methyl-butyl}-4-dimethylamino-benzamide] | < 5 | < 5 | < 5 | –
CC(C)C[C@H](NC(=O)c1ccc(N(C)C)cc1)C(=O)N1CC[C@@H]2[C@H]1C(=O)CN2C(=O)C12CC3CC(CC(C3)C1)C2 [Example 48, (3aR,6aS)-N-{(1S)-1-[4-(Adamantane-1-carbonyl)-6-oxo-hexahydro-pyrrolo[3,2-b]pyrrole-1-carbonyl]-3-methyl-butyl}-4-dimethylamino-benzamide] | < 5 | < 5 | < 5 | –
CCC(C)CC(=O)N1CC(=O)[C@@H]2[C@H]1CCN2C(=O)[C@H](CC(C)C)NC(=O)c1ccc(N(C)C)cc1 (stereo partly drawn) [Example 141, (3aR,6aS)-4-Dimethylamino-N-{(1S)-3-methyl-1-[4-(3-methyl-pentanoyl)-6-oxo-hexahydro-pyrrolo[3,2-b]pyrrole-1-carbonyl]-butyl}-benzamide] | < 5 | < 5 | < 5 | –
CC(C)C[C@H](NC(=O)c1ccc(N(C)C)cc1)C(=O)N1CC[C@@H]2[C@H]1C(=O)CN2C(=O)c1ccc(Cl)s1 [Example 166, (3aR,6aS)-N-{(1S)-1-[4-(5-Chloro-thiophene-2-carbonyl)-6-oxo-hexahydro-pyrrolo[3,2-b]pyrrole-1-carbonyl]-3-methyl-butyl}-4-dimethylamino-benzamide] | < 5 | < 5 | < 5 | –
CC(C)C[C@H](NC(=O)c1ccc(N(C)C)cc1)C(=O)N1CC[C@@H]2[C@H]1C(=O)CN2C(=O)c1cccc(S(C)(=O)=O)c1 [Example 43, (3aR,6aS)-4-Dimethylamino-N-{(1S)-1-[4-(3-methanesulfonyl-benzoyl)-6-oxo-hexahydro-pyrrolo[3,2-b]pyrrole-1-carbonyl]-3-methyl-butyl}-benzamide] | < 5 | < 5 | < 5 | –
CC(C)C[C@H](NC(=O)c1ccc(N(C)C)cc1)C(=O)N1CC[C@@H]2[C@H]1C(=O)CN2C(=O)c1ccc(F)cc1 [Example 57, (3aR,6aS)-4-Dimethylamino-N-{(1S)-1-[4-(4-fluoro-benzoyl)-6-oxo-hexahydro-pyrrolo[3,2-b]pyrrole-1-carbonyl]-3-methyl-butyl}-benzamide] | – | < 5 | < 5 | –
CC(C)C[C@H](NC(=O)c1ccc(N(C)C)cc1)C(=O)N1CC[C@@H]2[C@H]1C(=O)CN2C(=O)c1ccc2nonc2c1 [Example 102, (3aR,6aS)-N-{(1S)-1-[4-(Benzo[1,2,5]oxadiazole-5-carbonyl)-6-oxo-hexahydro-pyrrolo[3,2-b]pyrrole-1-carbonyl]-3-methyl-butyl}-4-dimethylamino-benzamide] | < 5 | < 5 | < 5 | –
CCN(CC)c1ccc(C(=O)N[C@@H](CC(C)C)C(=O)N2CC[C@@H]3[C@H]2C(=O)CN3C(=O)c2cccc(S(C)(=O)=O)c2)cc1 [Example 60, (3aR,6aS)-4-Diethylamino-N-{(1S)-1-[4-(3-methanesulfonyl-benzoyl)-6-oxo-hexahydro-pyrrolo[3,2-b]pyrrole-1-carbonyl]-3-methyl-butyl}-benzamide] | < 5 | < 5 | < 5 | –
CC(C)C[C@H](NC(=O)c1ccc(N(C)C)cc1)C(=O)N1CC[C@@H]2[C@H]1C(=O)CN2C(=O)C1CCCCCC1 [Example 135, (3aR,6aS)-N-[(1S)-1-(4-Cycloheptanecarbonyl-6-oxo-hexahydro-pyrrolo[3,2-b]pyrrole-1-carbonyl)-3-methyl-butyl]-4-dimethylamino-benzamide] | < 5 | < 5 | – | < 5
CC(C)C[C@H](NC(=O)c1ccc(N(C)C)cc1)C(=O)N1CC[C@@H]2[C@H]1C(=O)CN2C(=O)c1ccc(Cl)cc1 [Example 74, (3aR,6aS)-N-{(1S)-1-[4-(4-Chloro-benzoyl)-6-oxo-hexahydro-pyrrolo[3,2-b]pyrrole-1-carbonyl]-3-methyl-butyl}-4-dimethylamino-benzamide] | < 5 | < 5 | < 5 | –
CC(C)C[C@H](NC(=O)c1ccc(N(C)C)cc1)C(=O)N1CC[C@@H]2[C@H]1C(=O)CN2C(=O)c1cccc([N+](=O)[O-])c1 [Example 46, (3aR,6aS)-4-Dimethylamino-N-{(1S)-3-methyl-1-[4-(3-nitro-benzoyl)-6-oxo-hexahydro-pyrrolo[3,2-b]pyrrole-1-carbonyl]-butyl}-benzamide] | < 5 | < 5 | < 5 | –
Cc1cccc(C(=O)N2CC(=O)[C@@H]3[C@H]2CCN3C(=O)[C@H](CC(C)C)NC(=O)c2ccc(N(C)C)cc2)c1 [Example 54, (3aR,6aS)-4-Dimethylamino-N-{(1S)-3-methyl-1-[4-(3-methyl-benzoyl)-6-oxo-hexahydro-pyrrolo[3,2-b]pyrrole-1-carbonyl]-butyl}-benzamide] | < 5 | – | < 5 | –
Cc1cccc(C(=O)N2CC(=O)[C@@H]3[C@H]2CCN3C(=O)[C@H](Cc2ccc(O)cc2)NC(=O)c2cccc(Br)c2)c1 [Example 327, (3aR,6aS)-3-Bromo-N-{(1S)-1-(4-hydroxy-benzyl)-2-[4-(3-methyl-benzoyl)-6-oxo-hexahydro-pyrrolo[3,2-b]pyrrol-1-yl]-2-oxo-ethyl}-benzamide] | < 5 | – | < 5 | –
CC(C)C[C@H](NC(=O)c1ccc(C(C)(C)C)cc1)C(=O)N1CC[C@@H]2[C@H]1C(=O)CN2C(=O)c1csc(-c2ccccc2)n1 [Example 27, (3aR,6aS)-4-tert-Butyl-N-{(1S)-3-methyl-1-[6-oxo-4-(2-phenyl-thiazole-4-carbonyl)-hexahydro-pyrrolo[3,2-b]pyrrole-1-carbonyl]-butyl}-benzamide] | < 5 | < 5 | < 5 | –
O=C(N[C@@H](Cc1ccc(O)cc1)C(=O)N1CC[C@@H]2[C@H]1C(=O)CN2C(=O)C1CCCCC1)c1cccc(Br)c1 [Example 325, (3aR,6aS)-3-Bromo-N-[(1S)-2-(4-cyclohexanecarbonyl-6-oxo-hexahydro-pyrrolo[3,2-b]pyrrole-1-yl)-1-(4-hydroxy-benzyl)-2-oxo-ethyl]-benzamide] | < 5 | – | < 5 | –
CC(C)C[C@H](NC(=O)c1ccc(N(C)C)cc1)C(=O)N1CC[C@@H]2[C@H]1C(=O)CN2C(=O)c1ccc2cc[nH]c2c1 [Example 99, (3aR,6aS)-4-Dimethylamino-N-{(1S)-1-[4-(1H-indole-6-carbonyl)-6-oxo-hexahydro-pyrrolo[3,2-b]pyrrole-1-carbonyl]-3-methyl-butyl}-benzamide] | < 5 | < 5 | < 5 | –
